Drawing on the NIST ThermoML archive (doi:10.1016/j.fluid.2015.10.027), this text covers mass density for one compound.

± gives the expanded uncertainty stated by the source.

For the data set the following is noted: 101.33 kPa, Liquid, Vibrating tube method.

Consider `CC1CCCC(C)N1` (stereo not given) [2,6-dimethylpiperidine], for which the mass density is, setting by setting: (300.83 K) 816.664 ± 0.24 kg/m3; (304.05 K) 813.975 ± 0.24 kg/m3; (306.72 K) 811.615 ± 0.24 kg/m3; (309.8 K) 809.031 ± 0.24 kg/m3; (313.97 K) 805.478 ± 0.24 kg/m3.
